Values of other authors, collected in patent publication US11737981B2, “Cellulosic polymer nanoparticles and methods of forming them” (The Trustees of Princeton University, priority 2017, dated 2023).
In brackets after ≈: the same amount, converted by molar mass.

Compound	solubility in water
CCC(C)n1ncn(-c2ccc(N3CCN(c4ccc(OCC5COC(Cn6cncn6)(c6ccc(Cl)cc6Cl)O5)cc4)CC3)cc2)c1=O (stereo not drawn) [Itraconazole]	~9.6 µg/mL (≈ 13.6 µM)
artefenomel mesylate [OZ439 mesylate]	about 0.47 mg/L
CCCCN(CCCC)CC(O)c1cc(Cl)cc2c1-c1ccc(Cl)cc1/C2=C/c1ccc(Cl)cc1 (stereo not drawn) [Lumefantrine]	about 0.031 mg/L
